According to ChEMBL document CHEMBL5634135, “Design, synthesis, and biological evaluation of quinoline-piperazine/pyrrolidine derivatives as possible antileishmanial agents” (Eur J Med Chem, 2023):
Activity calls are given as the source filed them. No cut-off for these calls is given here.

What was measured:
Leishmania donovani [1] = test: Antileishmanial activity against amastigote form of luciferase expressing Leishmania donovani MHOM/IN/80/Dd8 infected in mouse J774.A1 cells assessed as inhibition of parasite growth at 50 uM measured after 72 hrs by luciferase reporter gene assay; format: functional, organism-based
Leishmania infantum [2] = test: Antileishmanial activity against promastigote form of Leishmania infantum BCN150 overexpressing iRFP assessed as inhibition of parasite growth measured after 52 hrs; format: functional, organism-based; details: BCN150, 52 h
Leishmania infantum [3] = test: Antileishmanial activity against amastigote form of Leishmania infantum BCN150 overexpressing iRFP assessed as inhibition of parasite growth measured after 52 hrs; format: functional, organism-based; details: BCN150, 52 h
Leishmania donovani [4] = test: Antileishmanial activity against amastigote form of luciferase expressing Leishmania donovani MHOM/IN/80/Dd8 infected in mouse J774.A1 cells assessed as inhibition of parasite growth measured after 72 hrs by luciferase reporter gene assay; format: functional, organism-based; details: MHOM/IN/80/Dd8, J774.A1, 72 h
[5] = Cytotoxicity against mouse J774.A1 cells assessed as reduction in cell viability incubated for 48 hrs by MTT assay; format: toxicity, cell-based
[6] = Safety index, ratio of CC50 for cytotoxicity against mouse J774.A1 cells to IC50 for antileishmanial activity against amastigote form of luciferase expressing Leishmania donovani MHOM/IN/80/Dd8 infected in mouse J774.A1; format: toxicity, cell-based; details: read-out: Ratio CC50/IC50
Leishmania donovani [7] = test: Antileishmanial activity against Leishmania donovani assessed as inhibition of parasite growth; format: functional, organism-based
Leishmania donovani [8] = test: Antileishmanial activity against amastigote form of Leishmania donovani infected in golden hamster assessed as reduction in parasite load in spleen at 50 mg/kg, ip administered for 5 days and measured on day 7 post-drug treatment by Giemsa staining based analysis; format: functional; details: 288 h, time 12 day
Leishmania donovani [9] = test: Antileishmanial activity against amastigote form of Leishmania donovani infected in golden hamster assessed as reduction in parasite load in spleen at 50 mg/kg, ip administered for 5 days and measured on day 28 post-dug treatment by Giemsa staining based analysis; format: functional; details: 792 h, time 33 day
[10] = Toxicity against golden hamster infected with amastigote form of Leishmania donovani assessed as skin rashes at 50 mg/kg, ip administered for 5 days; format: organism-based, Mesocricetus auratus; details: in vivo, 120 h, time 5 day
[11] = Toxicity against golden hamster infected with amastigote form of Leishmania donovani assessed as discomfort at 50 mg/kg, ip administered for 5 days; format: organism-based, Mesocricetus auratus; details: in vivo, 120 h, time 5 day
[12] = Toxicity against golden hamster infected with amastigote form of Leishmania donovani assessed as animal's death at 50 mg/kg, ip administered for 5 days; format: organism-based, Mesocricetus auratus; details: in vivo, 120 h, time 5 day
[13] = Cmax in golden hamster at 50 mg/kg, ip measured for 24 hrs by LC-MS/MS analysis; format: ADME, organism-based, Mesocricetus auratus; details: in vivo
[14] = Tmax in golden hamster at 50 mg/kg, ip measured for 24 hrs by LC-MS/MS analysis; format: ADME, organism-based, Mesocricetus auratus; details: in vivo
[15] = AUC in golden hamster at 50 mg/kg, ip measured for 24 hrs by LC-MS/MS analysis; format: ADME, organism-based, Mesocricetus auratus; details: in vivo
[16] = Half life in golden hamster at 50 mg/kg, ip measured for 24 hrs by LC-MS/MS analysis; format: ADME, organism-based, Mesocricetus auratus; details: in vivo
[17] = Clearance in golden hamster at 50 mg/kg, ip measured for 24 hrs by LC-MS/MS analysis; format: ADME, organism-based, Mesocricetus auratus; details: in vivo
[18] = Volume of distribution in golden hamster at 50 mg/kg, ip measured for 24 hrs by LC-MS/MS analysis; format: ADME, organism-based, Mesocricetus auratus; details: in vivo
[19] = MRT in golden hamster at 50 mg/kg, ip measured for 24 hrs by LC-MS/MS analysis; format: ADME, organism-based, Mesocricetus auratus; details: in vivo

Structure (SMILES): OC(COc1ccc(-c2cc(-c3ccccc3F)c3cc(Cl)ccc3n2)cc1)CN1CCN(c2cccc(Cl)c2Cl)CC1 (stereo not drawn)
- inhibition (Leishmania donovani [1]): inactive

Structure (SMILES): Cc1ccc2c(-c3ccccc3)cc(-c3ccc(OCC(O)CN4CCN(c5cccc(Cl)c5Cl)CC4)cc3)nc2c1 (stereo not drawn)
- inhibition (Leishmania donovani [1]): inactive

Structure (SMILES): O=[N+]([O-])c1ccc2nc(-c3ccc(OCC(O)CN4CCCC4)cc3)cc(-c3ccccc3)c2c1 (stereo not drawn)
- inhibition (Leishmania donovani [1]): inactive

Structure (SMILES): COc1ccccc1N1CCN(C(=O)CN(Cc2ccccc2)c2ccc(Cl)cc2)CC1
- IC50 (Leishmania infantum [2]): 3.61 µM
- IC50 (Leishmania infantum [3]): 44.1 µM

Structure (SMILES): OC(COc1ccc(-c2cc(-c3ccccc3Cl)c3cc(Cl)ccc3n2)cc1)CN1CCN(c2ccccc2Cl)CC1 (stereo not drawn)
- inhibition (Leishmania donovani [1]): inactive

Structure (SMILES): OC(COc1ccc(-c2cc(-c3ccccc3)c3ccccc3n2)cc1)Cn1ccnc1 (stereo not drawn)
- IC50 (Leishmania donovani [4]): 3.37 µM
- CC50 at 48 h [5]: 34 µM
- selectivity ratio [6]: 10.1

Structure (SMILES): OC(COc1ccc(-c2cc(-c3ccccc3)c3ccccc3n2)cc1)CN1CCN(c2cccc(Cl)c2Cl)CC1 (stereo not drawn)
- inhibition (Leishmania donovani [1]): inactive

Structure (SMILES): OC(COc1ccc(-c2cc(-c3ccccc3)c3ccccc3n2)cc1)CN1CCN(c2ccccn2)CC1 (stereo not drawn)
- IC50 (Leishmania donovani [4]): 7.01 µM
- CC50 at 48 h [5]: 27.2 µM
- selectivity ratio [6]: 3.88

Structure (SMILES): NC(CC(=O)N1CC(CO)C(c2ccc(Cl)cc2)C1)Cc1ccc(Cl)cc1 (stereo not drawn)
- IC50 (Leishmania donovani [7]): 0.093 µM

Structure (SMILES): Cc1ccc(Cl)cc1N1CCN(CC(O)COc2ccc(-c3cc(-c4ccccc4Cl)c4cc(Cl)ccc4n3)cc2)CC1 (stereo not drawn)
- inhibition (Leishmania donovani [1]): inactive

Structure (SMILES): O=C(c1ccco1)N1CCN(CC(O)COc2ccc(-c3cc(-c4ccccc4)c4cc(Cl)ccc4n3)cc2)CC1 (stereo not drawn)
- IC50 (Leishmania donovani [4]): 8.13 µM
- CC50 at 48 h [5]: 57.8 µM
- selectivity ratio [6]: 7.1

Structure (SMILES): O=[N+]([O-])c1ccc2nc(-c3ccc(OCC(O)CN4CCN(c5cccc(Cl)c5Cl)CC4)cc3)cc(-c3ccccc3)c2c1 (stereo not drawn)
- inhibition (Leishmania donovani [1]): inactive

Structure (SMILES): OC(COc1ccc(-c2cc(-c3ccccc3Cl)c3cc(Cl)ccc3n2)cc1)CN1CCN(c2ccccc2)CC1 (stereo not drawn)
- inhibition (Leishmania donovani [1]): inactive

Structure (SMILES): Cc1ccc(Cl)cc1N1CCN(CC(O)COc2ccc(-c3cc(-c4ccccc4)c4ccccc4n3)cc2)CC1 (stereo not drawn)
- inhibition (Leishmania donovani [1]): inactive

Structure (SMILES): Cc1ccc2c(-c3ccccc3)cc(-c3ccc(OCC(O)CN4CCCC4)cc3)nc2c1 (stereo not drawn)
- inhibition (Leishmania donovani [1]): inactive

Structure (SMILES): OC(COc1ccc(-c2cc(-c3ccccc3)c3cc(Cl)ccc3n2)cc1)CN1CCCC1 (stereo not drawn)
- IC50 (Leishmania donovani [4]): 2.09 µM
- CC50 at 48 h [5]: 21.4 µM
- selectivity ratio [6]: 10.3
- inhibition in vivo at 50 mg/kg (Leishmania donovani [8]): 27.8%
- inhibition in vivo at 50 mg/kg (Leishmania donovani [9]): 49.3%
- Activity [10]: Non-Toxic
- Activity [11]: Non-Toxic
- Activity [12]: Non-Toxic
- Cmax [13]: 17600 ng/mL
- Tmax [14]: 2 h
- AUC at 24 h [15]: 85000 ng·h/mL
- half-life [16]: 4.67 h
- CL/F [17]: 9.5 mL/min/kg
- Vd [18]: 3.88 L/kg
- MRT [19]: 6.35 h

Structure (SMILES): CCCCCCCCCCCCCCCCOP(=O)([O-])OCC[N+](C)(C)C [MILTEFOSINE]
- IC50 (Leishmania donovani [4]): 9.25 µM
- selectivity ratio [6]: 5.76

Structure (SMILES): OC(COc1ccc(-c2cc(-c3ccccc3Cl)c3cc(Cl)ccc3n2)cc1)CN1CCN(c2ccccc2F)CC1 (stereo not drawn)
- inhibition (Leishmania donovani [1]): inactive

Structure (SMILES): OC(COc1ccc(-c2ccc3ccccc3n2)cc1)CN1CCCC1 (stereo not drawn)
- IC50 (Leishmania donovani [4]): 8.89 µM
- CC50 at 48 h [5]: 54.7 µM
- selectivity ratio [6]: 6.15

Structure (SMILES): OC(COc1ccc(-c2cc(-c3ccccc3)c3ccc(Br)cc3n2)cc1)CN1CCN(c2cccc(Cl)c2Cl)CC1 (stereo not drawn)
- inhibition (Leishmania donovani [1]): inactive

Structure (SMILES): NC(=O)C1CCN(CC(O)COc2ccc(-c3cc(-c4ccccc4)c4ccccc4n3)cc2)CC1 (stereo not drawn)
- inhibition (Leishmania donovani [1]): inactive

Structure (SMILES): OC(COc1ccc(-c2cc(-c3ccccc3Cl)c3cc(Cl)ccc3n2)cc1)CN1CCN(c2cccc(Cl)c2Cl)CC1 (stereo not drawn)
- IC50 (Leishmania donovani [4]): 5.39 µM
- CC50 at 48 h [5]: 63.5 µM
- selectivity ratio [6]: 11.8
- inhibition in vivo at 50 mg/kg (Leishmania donovani [8]): 40.7%
- inhibition in vivo at 50 mg/kg (Leishmania donovani [9]): 56.3%
- Activity [10]: Non-Toxic
- Activity [11]: Non-Toxic
- Activity [12]: Non-Toxic
- Cmax [13]: 9930 ng/mL
- Tmax [14]: 2 h
- AUC at 24 h [15]: 32900 ng·h/mL
- half-life [16]: 5 h
- CL/F [17]: 25.8 mL/min/kg
- Vd [18]: 11.25 L/kg
- MRT [19]: 5.56 h

Structure (SMILES): OC(COc1ccc(-c2cc(-c3ccccc3F)c3cc(Cl)ccc3n2)cc1)CN1CCCC1 (stereo not drawn)
- IC50 (Leishmania donovani [4]): 2.4 µM
- CC50 at 48 h [5]: 22.7 µM
- selectivity ratio [6]: 9.41

Structure (SMILES): OC(COc1ccc(-c2cc(-c3ccccc3)c3cc(Cl)ccc3n2)cc1)CN1CCN(c2cccc(Cl)c2Cl)CC1 (stereo not drawn)
- inhibition (Leishmania donovani [1]): inactive

Structure (SMILES): Cc1cc(-c2ccc(OCC(O)CN3CCN(c4cccc(Cl)c4Cl)CC3)cc2)nc2ccccc12 (stereo not drawn)
- inhibition (Leishmania donovani [1]): inactive

Structure (SMILES): OC(COc1ccc(-c2cc(-c3ccccc3)c3cc(Cl)ccc3n2)cc1)CN1CCN(c2ccccc2)CC1 (stereo not drawn)
- inhibition (Leishmania donovani [1]): inactive

Structure (SMILES): OC(COc1ccc(-c2cc(-c3ccccc3)c3ccccc3n2)cc1)Cn1cncn1 (stereo not drawn)
- inhibition (Leishmania donovani [1]): inactive

Structure (SMILES): CCOC(=O)N1CCN(CC(O)COc2ccc(-c3cc(-c4ccccc4)c4cc(Cl)ccc4n3)cc2)CC1 (stereo not drawn)
- inhibition (Leishmania donovani [1]): inactive

Structure (SMILES): OC(COc1ccc(-c2ccc3ccccc3n2)cc1)CN1CCN(c2cccc(Cl)c2Cl)CC1 (stereo not drawn)
- inhibition (Leishmania donovani [1]): inactive

Structure (SMILES): COc1ccc(N2CCN(CC(O)COc3ccc(-c4cc(-c5ccccc5Cl)c5cc(Cl)ccc5n4)cc3)CC2)cc1 (stereo not drawn)
- inhibition (Leishmania donovani [1]): inactive

Structure (SMILES): O=C(c1ccco1)N1CCN(CC(O)COc2ccc(-c3cc(-c4ccccc4Cl)c4cc(Cl)ccc4n3)cc2)CC1 (stereo not drawn)
- inhibition (Leishmania donovani [1]): inactive

Structure (SMILES): OC(COc1ccc(-c2cc(-c3ccccc3)c3ccccc3n2)cc1)CN1CCN(c2ccccc2F)CC1 (stereo not drawn)
- inhibition (Leishmania donovani [1]): inactive

Structure (SMILES): O=C(c1ccco1)N1CCN(CC(O)COc2ccc(-c3cc(-c4ccccc4)c4ccccc4n3)cc2)CC1 (stereo not drawn)
- IC50 (Leishmania donovani [4]): 8.22 µM
- CC50 at 48 h [5]: 21.8 µM
- selectivity ratio [6]: 2.64

Structure (SMILES): OC(COc1ccc(-c2cc(-c3ccccc3)c3ccc(Br)cc3n2)cc1)CN1CCCC1 (stereo not drawn)
- IC50 (Leishmania donovani [4]): 5.32 µM
- CC50 at 48 h [5]: 49.7 µM
- selectivity ratio [6]: 9.34

Structure (SMILES): OC(COc1ccc(-c2cc(-c3ccccc3Cl)c3cc(Cl)ccc3n2)cc1)CN1CCN(c2ccccn2)CC1 (stereo not drawn)
- IC50 (Leishmania donovani [4]): 5.56 µM
- CC50 at 48 h [5]: 41.9 µM
- selectivity ratio [6]: 7.52

Structure (SMILES): OC(COc1ccc(-c2cc(-c3ccccc3)c3ccccc3n2)cc1)CN1CCN(c2ccccc2)CC1 (stereo not drawn)
- IC50 (Leishmania donovani [4]): 5.39 µM
- CC50 at 48 h [5]: 21.5 µM
- selectivity ratio [6]: 3.98

Structure (SMILES): Cc1ncc([N+](=O)[O-])n1CC(O)COc1ccc(-c2cc(-c3ccccc3)c3ccccc3n2)cc1 (stereo not drawn)
- inhibition (Leishmania donovani [1]): inactive

Structure (SMILES): OC(COc1ccc(-c2cc(-c3ccccc3)c3ccccc3n2)cc1)CN1CCCC1 (stereo not drawn)
- IC50 (Leishmania donovani [4]): 4.38 µM
- CC50 at 48 h [5]: 20.8 µM
- selectivity ratio [6]: 4.73
